Source: patent publication US20160108004A1, “TREATMENT OR PREVENTION OF NEURODEGENERATIVE DISORDERS USING MENTHOL, LINALOOL AND/OR ICILIN” (NESTEC S.A., priority 2013, published 2016)

Columns and labels:
[1] = test system: Lateral Amygdala glutamatergic neuron; test: whole cell, current clamp recordings in a Lateral Amygdala glutamatergic neuron (mouse brain slice); assay type: cell-based; details: for inactivation of the sodium fast channels relative to control: square pulse of 2.5 s at high depolarization of membrane potential (approximately −30 mV), FIG. 2
Source text: (§1) A mouse brain slice was used to study the effects of Menthol, Linalool and Icilin. The amygdaloid complex is located within the medial temporal lobe in neocortex and amygdala. The lateral and basolateral nuclei of the amygdaloid complex receive sensory information from cortical and thalamic structures, process the information, and then transmit the information, either directly or through the basal nucleus, to the central nucleus. For experimental analysis of neural activity, synaptic responses from the basolateral complex can be evoked electrically using electrodes, and the action potentials can be measured.
A square pulse of 2.5 s was applied at high depolarization of membrane potential (approximately −30 mV).

[2] = test system: Lateral Amygdala glutamatergic neuron; test: whole cell, current clamp recordings with increasing concentration of gabazine (spontaneous action potential bursts); assay type: cell-based, mouse
Source text: as §1

SMILES | amount of current required to trigger an action potential [1] | threshold to trigger an action potential [1] | action potentials at higher stimulation levels [1] | inactivation of the sodium fast channels relative to control [1] | spontaneous bursts in the presence of gabazine ([2]; Menthol 250 μM applied extracellularly 10 minutes previous to and during exposure to increasing concentrations of gabazine, FIG. 5 compared to FIG. 3) | spontaneous action potential bursts ([2]; increasing concentrations of gabazine applied extracellularly, recordings of 5 min each, washout 10 min, FIG. 3)
O=C1NC(c2cccc([N+](=O)[O-])c2)=CCN1c1ccccc1O [Icilin] | increase the amount of current required to trigger an action potential | increase the threshold to trigger an action potential | abort action potentials at higher stimulation levels | inactivation of the sodium fast channels happens sooner relative to control |  | 
CC1CCC(C(C)C)C(O)C1 (centres unmarked) [Menthol] | increase the amount of current required to trigger an action potential | increase the threshold to trigger an action potential | abort action potentials at higher stimulation levels | inactivation of the sodium fast channels happens sooner relative to control | complete absence or a strongly decreased presence of spontaneous bursts | 
COc1ccc(-c2ccc(=N)n(CCCC(=O)O)n2)cc1 [gabazine, reference compound] |  |  |  |  |  | neurons spontaneously present action potential bursts
C=CC(C)(O)CCC=C(C)C (centres unmarked) [Linalool] | increase the amount of current required to trigger an action potential | increase the threshold to trigger an action potential | abort action potentials at higher stimulation levels | inactivation of the sodium fast channels happens sooner relative to control |  | 
